# Target: T1, recombinant human MIF protein (Homo sapiens, UniProt P14174)
# T1 construct: commercial recombinant human MIF (PeproTech), amine-coupled to CM7 chip; homotrimer
# T1 sequence (P14174 2-115): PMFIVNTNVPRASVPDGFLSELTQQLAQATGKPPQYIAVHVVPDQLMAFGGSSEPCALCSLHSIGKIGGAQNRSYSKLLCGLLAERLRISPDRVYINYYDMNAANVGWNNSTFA
# Assay: surface plasmon resonance (Biacore T200)
# Format: binding
compound,measurement,value
"Cn1c2ccccc2c2cc(C3=NCCc4c3[nH]c3ccccc43)ccc21 [compound 7, 1-(9′-methyl-3′-carbazole)-3,4-dihydro-β-carboline]",Kd,0.725 µM
